Results as given in US8445510B2, “Fused bicyclic kinase inhibitors” (OSI Pharmaceuticals, LLC, priority 2011, dated 2013).

Columns and labels:
Aurora B = target: T1, Aurora B (Homo sapiens, UniProt Q96GD4); experiment: Aurora B cell mechanistic assay (HT-29), phospho-Histone H3 (Ser10) ELISA; type: cell-based; conditions: HT-29 cell line; inhibition of phospho-Histone H3 (Ser10); at least duplicate experiments (italicized if single experiment); read-out: Aurora B mech IC50
T1 construct: HT-29 cells grown in complete growth media
T1 sequence (Q96GD4 whole entry): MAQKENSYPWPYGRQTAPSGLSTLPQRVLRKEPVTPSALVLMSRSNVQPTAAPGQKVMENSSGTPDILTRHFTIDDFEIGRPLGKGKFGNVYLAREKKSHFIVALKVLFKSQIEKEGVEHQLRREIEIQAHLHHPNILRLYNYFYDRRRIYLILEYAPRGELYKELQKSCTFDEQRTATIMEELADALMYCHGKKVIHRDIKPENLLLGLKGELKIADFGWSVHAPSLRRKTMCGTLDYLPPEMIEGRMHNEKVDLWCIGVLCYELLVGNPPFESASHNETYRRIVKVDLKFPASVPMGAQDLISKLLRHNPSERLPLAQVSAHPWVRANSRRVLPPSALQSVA
In short: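 HT-29 cells treated 1 h at 37 °C with serially diluted compound, then 100 nM Calyculin A added for 30 min. Lysates assayed by phospho-Histone H3 (Ser10) ELISA at 450 nm; normalized to DMSO (100%) and a reference Aurora B inhibitor (full inhibition); IC50 by four-parameter fit.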

Karpas-299 cells = experiment: Karpas-299 cell proliferation assay (CellTiter-Glo); type: cell-based; conditions: Homo sapiens, 72 h; Karpas-299 cell line (NPM-ALK); 3 days incubation; at least duplicate experiments; read-out: Prolif. IC50

Row | Compound | IC50 (Aurora B) [nM] | IC50 (Karpas-299 cells) [nM]
1 | COc1ccc(F)c(Cl)c1[C@@H](C)c1c[nH]c2ncc(-c3c(CO)nn(C)c3C)cc12 [Example 51, (4-{3-[(1S)-1-(2-Chloro-3-fluoro-6-methoxyphenyl)ethyl]-1H-pyrrolo[2,3-b]pyridin-5-yl}-1,5-dimethyl-1H-pyrazol-3-yl)methanol] | > 1000 | 50 to 200
2 | COc1ccc(F)c(Cl)c1[C@@H](C)c1c[nH]c2ncc(-c3cnn([C@H]4CC[C@@H](O)CC4)c3C)cc12 [Example 52, cis-4-(4-{3-[(1S)-1-(2-Chloro-3-fluoro-6-methoxyphenyl)ethyl]-1H-pyrrolo[2,3-b]pyridin-5-yl}-5-methyl-1H-pyrazol-1-yl)cyclohexanol] | > 1000 | 50 to 200
3 | COc1ccc(F)c(Cl)c1[C@@H](C)c1c[nH]c2ncc(-c3cn(C)nc3OC)cc12 [Example 61, 3-[(1S)-1-(2-Chloro-3-fluoro-6-methoxyphenyl)ethyl]-5-(3-methoxy-1-methyl-1H-pyrazol-4-yl)-1H-pyrrolo[2,3-b]pyridine] | > 1000 | 200 to 1000
4 | COc1ccc(F)c(Cl)c1[C@@H](C)c1c[nH]c2ncc(-c3cnn(C)c3OC)cc12 [Example 62, 3-[(1S)-1-(2-chloro-3-fluoro-6-methoxyphenyl)ethyl]-5-(5-methoxy-1-methyl-1H-pyrazol-4-yl)-1H-pyrrolo[2,3-b]pyridine] | > 1000 | 200 to 1000
5 | COc1ccc(F)c(Cl)c1[C@@H](C)c1c[nH]c2ncc(-c3c(C)nn(C)c3Cl)cc12 [Example 63, 5-(5-Chloro-1,3-dimethyl-1H-pyrazol-4-yl)-3-[(1S)-1-(2-chloro-3-fluoro-6-methoxyphenyl)ethyl]-1H-pyrrolo[2,3-b]pyridine] | > 1000 | 200 to 1000
6 | COc1ccc(F)c(Cl)c1[C@@H](C)c1c[nH]c2ncc(-c3cncn3C)cc12 [Example 64, 3-[(1S)-1-(2-Chloro-3-fluoro-6-methoxyphenyl)ethyl]-5-(1-methyl-1H-imidazol-5-yl)-1H-pyrrolo[2,3-b]pyridine] | > 1000 | 200 to 1000
7 | COc1ccc(F)c(Cl)c1[C@@H](C)c1c[nH]c2ncc(-c3cnc(C)n3C)cc12 [Example 65, 3-[(1S)-1-(2-chloro-3-fluoro-6-methoxyphenyl)ethyl]-5-(1,2-dimethyl-1H-imidazol-5-yl)-1H-pyrrolo[2,3-b]pyridine] | > 1000 | 200 to 1000
8 | Cc1nn(C[C@@H](O)CO)c(C)c1-c1cnc2[nH]cc([C@H](C)c3c(Cl)ccc(F)c3Cl)c2c1 [Example 66, (2R)-3-(4-{3-[(1S)-1-(2,6-Dichloro-3-fluorophenyl)ethyl]-1H-pyrrolo[2,3-b]pyridin-5-yl}-3,5-dimethyl-1H-pyrazol-1-yl)propane-1,2-diol] | > 1000 | ≤ 50
9 | Cc1c(-c2cnc3[nH]cc([C@H](C)c4c(Cl)ccc(F)c4Cl)c3c2)cnn1[C@H]1CC[C@H](O)CC1 [Example 67, trans-4-(4-{3-[(1S)-1-(2,6-Dichloro-3-fluorophenyl)ethyl]-1H-pyrrolo[2,3-b]pyridin-5-yl}-5-methyl-1H-pyrazol-1-yl)cyclohexanol] | > 1000 | 50 to 200
10 | Cc1nn(C[C@@H](O)CO)c(C)c1-c1cnc2[nH]cc([C@H](C)c3c(OC(F)F)ccc(F)c3Cl)c2c1 [Example 69, (2R)-3-[4-(3-{(1S)-1-[2-Chloro-6-(difluoromethoxy)-3-fluorophenyl]ethyl}-1H-pyrrolo[2,3-b]pyridin-5-yl)-3,5-dimethyl-1H-pyrazol-1-yl]propane-1,2-diol] | > 1000 | ≤ 50
11 | CCc1nn(CC(C)(C)O)cc1-c1cnc2[nH]cc([C@H](C)c3c(OC(F)F)ccc(F)c3Cl)c2c1 [Example 73, 1-[4-(3-{(1S)-1-[2-Chloro-6-(difluoromethoxy)-3-fluorophenyl]ethyl}-1H-pyrrolo[2,3-b]pyridin-5-yl)-3-ethyl-1H-pyrazol-1-yl]-2-methylpropan-2-ol] | > 1000 | 50 to 200

Now from value to molecule:

Row | IC50 (Aurora B) [nM] | IC50 (Karpas-299 cells) [nM] | Compound
12 | 200 to 1000 | 200 to 1000 | COc1ccc(F)c(Cl)c1[C@@H](C)c1c[nH]c2ncc(-c3cn(C)nc3CN)cc12 [Example 50, 1-(4-{3-[(1S)-1-(2-Chloro-3-fluoro-6-methoxyphenyl)ethyl]-1H-pyrrolo[2,3-b]pyridin-5-yl}-1-methyl-1H-pyrazol-3-yl)methanamine]
13 | 50 to 200 | ≤ 50 | COc1ccc(F)c(Cl)c1[C@@H](C)c1c[nH]c2ncc(-c3cnn([C@H]4CC[C@H](N(C)C)CC4)c3C)cc12 [Example 53, trans-4-(4-{3-[(1S)-1-(2-Chloro-3-fluoro-6-methoxyphenyl)ethyl]-1H-pyrrolo[2,3-b]pyridin-5-yl}-5-methyl-1H-pyrazol-1-yl)-N,N-dimethylcyclohexanamine]
14 | 200 to 1000 | ≤ 50 | COc1ccc(F)c(Cl)c1[C@@H](C)c1c[nH]c2ncc(-c3cnn([C@H]4CC[C@@H](N(C)C)CC4)c3C)cc12 [Example 54, cis-4-(4-{3-[(1S)-1-(2-Chloro-3-fluoro-6-methoxyphenyl)ethyl]-1H-pyrrolo[2,3-b]pyridin-5-yl}-5-methyl-1H-pyrazol-1-yl)-N,N-dimethylcyclohexanamine]
15 | 200 to 1000 | 50 to 200 | COc1ccc(F)c(Cl)c1[C@@H](C)c1c[nH]c2ncc(-c3cn(C)nc3Cl)cc12 [Example 60, 3-[(1S)-1-(2-chloro-3-fluoro-6-methoxyphenyl)ethyl]-5-(3-chloro-1-methyl-1H-pyrazol-4-yl)-1H-pyrrolo[2,3-b]pyridine]
16 | 200 to 1000 | ≤ 50 | Cc1c(-c2cnc3[nH]cc([C@H](C)c4c(OC(F)F)ccc(F)c4Cl)c3c2)cnn1C[C@H](O)CO [Example 70, (2S)-3-[4-(3-{(1S)-1-[2-Chloro-6-(difluoromethoxy)-3-fluorophenyl]ethyl}-1H-pyrrolo[2,3-b]pyridin-5-yl)-5-methyl-1H-pyrazol-1-yl]propane-1,2-diol]
17 | 50 to 200 | ≤ 50 | Cc1nn(C[C@H](O)CO)cc1-c1cnc2[nH]cc([C@H](C)c3c(OC(F)F)ccc(F)c3Cl)c2c1 [Example 71, (2S)-3-[4-(3-{(1S)-1-[2-Chloro-6-(difluoromethoxy)-3-fluorophenyl]ethyl}-1H-pyrrolo[2,3-b]pyridin-5-yl)-3-methyl-1H-pyrazol-1-yl]propane-1,2-diol]
18 | 200 to 1000 | 50 to 200 | CCc1c(-c2cnc3[nH]cc([C@H](C)c4c(OC(F)F)ccc(F)c4Cl)c3c2)cnn1CC(C)(C)O [Example 72, 1-[4-(3-{(1S)-1-[2-Chloro-6-(difluoromethoxy)-3-fluorophenyl]ethyl}-1H-pyrrolo[2,3-b]pyridin-5-yl)-5-ethyl-1H-pyrazol-1-yl]-2-methylpropan-2-ol]
19 | 200 to 1000 | ≤ 50 | Cc1c(-c2cnc3[nH]cc([C@H](C)c4c(OC(F)F)ccc(F)c4Cl)c3c2)cnn1[C@H]1CC[C@H](O)CC1 [Example 74, trans-4-[4-(3-{(1S)-1-[2-Chloro-6-(difluoromethoxy)-3-fluorophenyl]ethyl}-1H-pyrrolo[2,3-b]pyridin-5-yl)-5-methyl-1H-pyrazol-1-yl]cyclohexanol]
20 | 200 to 1000 | ≤ 50 | Cc1c(-c2cnc3[nH]cc([C@H](C)c4c(OC(F)F)ccc(F)c4Cl)c3c2)cnn1[C@@H]1C[C@@H](O)[C@@H](O)C1 [Example 75, (1R,2S,4S)-4-[4-(3-{(1S)-1-[2-Chloro-6-(difluoromethoxy)-3-fluoro-phenyl]ethyl}-1H-pyrrolo[2,3-b]pyridin-5-yl)-5-methyl-1H-pyrazol-1-yl]cyclopentane-1,2-diol]
